# Measured values as given in patent publication US10981932B2, “Macrocyclic indole derivatives” (Bayer Aktiengesellschaft, priority 2016, dated 2021).
# “And” between values parts separate entries of the source, which are not always exact repeats. Equal values may be shown once. Where a name gives a salt, the structure may show the parent alone. Read-outs that look alike come from different tables or passages of the source.
# What was measured:
# [1] = target: MCL-1 (Homo sapiens, UniProt Q07820); assay: Protein-protein interaction assay MCL-1/Noxa BH3 peptide (MCL-1 assay), TR-FRET; assay type: binding; settings: MBP-MCL-1 / Noxa BH3-derived peptide, median
# Outline: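 IC50 came from a 4-parameter fit of the normalized 665/620 nm TR-FRET ratio (anti-MBP Eu-cryptate/streptavidin-XL665). Compounds (0.1 nM–20 μM, duplicates) were preincubated 10 min at 22 °C with 1 nM MBP-MCL-1 in pH 7 Tris/NaCl/KF buffer, then read after 1 h at 22 °C plus overnight at 4 °C.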
# [2] = tested on: SUDHL5; assay: Induction of caspase-3/7 activity (Caspase-Glo 3/7), SUDHL5; assay type: cell-based; settings: caspase-3/7 induction, SUDHL5 cells, 3 h treatment, median
# Outline: (§1)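 DLBCL lines SUDHL5 and SUDHL10 treated with compounds for 3 h at 37 °C; caspase-3/7 activity read by Caspase-Glo 3/7 luminescence. Medium-only background subtracted; EC50 fitted with bottom fixed at 1 and top fixed at the reference compound's maximal induction.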
# [3] = tested on: SUDHL10; assay: Induction of caspase-3/7 activity (Caspase-Glo 3/7), SUDHL10; assay type: cell-based; settings: caspase-3/7 induction, SUDHL10 cells, 3 h treatment, median
# Outline: as §1
# [4] = tested on: SUDHL5; assay: Anti-proliferative effect (CellTiter-Glo, 72 h), SUDHL5; assay type: cell-based; settings: SUDHL5 cells, antiproliferation, median, read-out: Antiproli SUDHL5 [M] (median)
# Outline: (§2)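 72 h compound treatment, 37 °C humidified; CellTiter-Glo added, 10 min incubation, luminescence read; day 0 plate read in parallel for baseline.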
# [5] = tested on: SUDHL10; assay: Anti-proliferative effect (CellTiter-Glo, 72 h), SUDHL10; assay type: cell-based; settings: SUDHL10 cells, antiproliferation, median, read-out: Antiproli SUDHL10 [M] (median)
# Description: Assessment of the Anti-Proliferative Effect of Compounds in Different Cell Lines
# The impact of compounds on the proliferation of different cell lines was assessed using the CellTiter-Glo® Luminescent Cell Viability reagent from Promega (G7573). Of note, SUDHL10 and SUDHL5 (DLBCL), NCI-H929 (Multiple Myeloma), A2780 (ovarian carcinoma) as well as MV-4-11(AML) cells are sensitive to MCL-1 inhibition.
# In parallel, cells were plated in a reference (day 0) plate for time zero determination.
# Rim wells were excluded. The cells were incubated for 72 h hours in a humidified incubator at 37° C. The day 0 plate was measured by adding 30 μl/well of CTG solution (CellTiter-Glo® Luminescent Cell Viability reagent, Promega G7573) to time zero wells in the reference plate followed by a 10 minutes incubation and luminescence reading at 0.1 ms, using the PHERAstar FS microplate reader (BMG Labtech).
# After 72 h incubation, the treated plates were measured in the same way as the day 0 plate mentioned above.
# [6] = tested on: A2780; assay: Anti-proliferative effect (CellTiter-Glo, 72 h), A2780; assay type: cell-based; settings: A2780 cells, median, read-out: IC50 antiproliferation assay A2780 [M] (median)
# Outline: as §2
# [7] = tested on: SUDHL5; assay: Induction of cytotoxicity (CellTiter-Glo, 5 h), SUDHL5
# [8] = tested on: SUDHL10; assay: Induction of cytotoxicity (CellTiter-Glo, 5 h), SUDHL10
# [9] = Homo sapiens, SU-DHL-5, 72 h, 72 h incubation
# [10] = read-out: Cytotox SUDHL5 [M] (median), SUDHL5 cells, cytotoxicity induction, CellTiter-Glo, 5 h incubation, median
# [11] = read-out: Cytotox SUDHL10 [M] (median), SUDHL10 cells, cytotoxicity induction, CellTiter-Glo, 5 h incubation, median
# [12] = Homo sapiens, SU-DHL10, 72 h, 72 h incubation
# [13] = Homo sapiens, SU-DHL-5, 5 h, read-out: Cytotox SUDHL5 [M] (median), SUDHL5 cells, cytotoxicity induction, CellTiter-Glo, 5 h incubation, median
# [14] = Homo sapiens, SU-DHL10, 5 h, read-out: Cytotox SUDHL10 [M] (median), SUDHL10 cells, cytotoxicity induction, CellTiter-Glo, 5 h incubation, median
# MCL-1, sequence (Q07820 whole entry): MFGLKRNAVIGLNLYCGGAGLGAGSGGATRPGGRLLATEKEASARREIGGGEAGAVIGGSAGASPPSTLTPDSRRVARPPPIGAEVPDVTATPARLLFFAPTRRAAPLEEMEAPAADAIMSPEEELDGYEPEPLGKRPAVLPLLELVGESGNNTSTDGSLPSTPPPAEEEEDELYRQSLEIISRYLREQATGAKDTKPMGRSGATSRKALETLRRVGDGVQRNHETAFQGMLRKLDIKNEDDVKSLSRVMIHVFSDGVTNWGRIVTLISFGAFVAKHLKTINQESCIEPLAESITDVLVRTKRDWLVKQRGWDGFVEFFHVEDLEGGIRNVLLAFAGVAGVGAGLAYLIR
smiles,measurement,setting,value
"Cn1nc2c(c1C(F)(F)F)-c1cccc3c(CCCOc4cccc5ccccc45)c(C(=O)O)n(c13)CCCCOC2 (single isomer, unassigned; enantiomer 1) [Example 194, 2-methyl-7-[3-(naphthalen-1-yloxy)propyl]-3-(trifluoromethyl)-2,10,11,12,13,15-hexahydropyrazolo[4′,3′:9,10][1,6]oxazacycloundecino[8,7,6-hi]indole-8-carboxylic Acid (Enantiomer 1)]",IC50,[1],0.00735 µM
same,EC50,[2],5.09 µM
same,EC50,[3],15.1 µM
same,IC50,[4]; [9],7.95e-06 M
same,IC50,[5]; 72 h incubation,6.28e-06 M
same,IC50,"[6]; Homo sapiens, A2780, 72 h",1.82e-05 M
same,IC50,[7]; [10],5.46e-06 M
same,IC50,[8]; [11],1.63e-05 M
"Cn1nc(CN2CCCCC2=O)c2c1COCCCCn1c(C(=O)O)c(CCCOc3cccc4ccccc34)c3cccc-2c31 (single isomer, unassigned; enantiomer 2) [Example 327, 1-methyl-7-[3-(naphthalen-1-yloxy)propyl]-3-[(2-oxopiperidin-1-yl)methyl]-1,10,11,12,13,15-hexahydropyrazolo[4′,3′:9,10][1,6]oxazacycloundecino[8,7,6-hi]indole-8-carboxylic Acid (Enantiomer 2)]",IC50,[1],0.103 µM
same,EC50,[2],> 33 µM
same,EC50,[3],> 33 µM
same,IC50,[4]; 72 h,2.48e-05 M
same,IC50,[5]; 72 h,1.3e-05 M
same,IC50,[6],3.12e-05 M
same,IC50,"[7]; read-out: Cytotox SUDHL5 [M] (median), SUDHL5 cells, cytotoxicity induction, CellTiter-Glo, 5 h, median",> 3.3e-05 M
same,IC50,"[8]; read-out: Cytotox SUDHL10 [M] (median), SUDHL10 cells, cytotoxicity induction, CellTiter-Glo, 5 h, median",> 3.3e-05 M
"COCc1c2c(nn1C)COCCCCn1c(C(=O)O)c(CCCOc3cccc4ccccc34)c3cccc-2c31 (single isomer, unassigned; enantiomer 1) [Example 100, 3-(methoxymethyl)-2-methyl-7-[3-(naphthalen-1-yloxy)propyl]-2,10,11,12,13,15-hexahydropyrazolo[4′,3′:9,10][1,6]oxazacycloundecino[8,7,6-hi]indole-8-carboxylic acid-N-ethylethanamine Salt (Enantiomer 1)]",IC50,[1],0.0424 µM
same,EC50,[2],> 33 µM
same,EC50,[3],> 33 µM
same,IC50,[4]; 72 h incubation,1.61e-05 M
same,IC50,[5]; 72 h incubation,1.71e-05 M
same,IC50,"[6]; Homo sapiens, A2780, 72 h",> 3.3e-05 M
same,IC50,[7]; [10],> 3.3e-05 M
same,IC50,[8]; [11],> 3.3e-05 M
"CCc1nn(C)c2c1-c1c(C)ccc3c(CCCOc4cccc5cc(F)ccc45)c(C(=O)O)n(c13)CCCCOC2 (racemic) [Example 266, (rac)-3-ethyl-7-{3-[(6-fluoronaphthalen-1-yl)oxy]propyl}1,4-dimethyl-1,10,11,12,13,15-hexahydropyrazolo[4′3′:9,10][1,6]oxazacycloundecino[8,7,6-hi]indole-8-carboxylic Acid]",IC50,[1],0.00259 µM
same,EC50,"[2]; Homo sapiens, SU-DHL-5, 3 h",1.79 µM
same,EC50,"[3]; Homo sapiens, SU-DHL10, 3 h",4.47 µM
same,IC50,[4]; [9],9.96e-07 M
same,IC50,[5]; [12],2.83e-06 M
same,IC50,"[6]; Homo sapiens, A2780, 72 h",2.83e-05 M
same,IC50,[7]; [13],1.76e-06 M
same,IC50,[8]; [14],4.99e-06 M
"COCCn1nc(C2CC2)c2c1COCCCCn1c(C(=O)O)c(CCCOc3cccc4ccccc34)c3cccc-2c31 (single isomer, unassigned; enantiomer 2) [Example 104, 3-cyclopropyl-1-(2-methoxyethyl)-7-[3-(naphthalen-1-yloxy)propyl]-1,10,11,12,13,15-hexahydropyrazolo[4′,3′:9,10][1,6]oxazacycloundecino[8,7,6-hi]indole-8-carboxylic acid-N-ethylethanamine Salt (Enantiomer 2)]",IC50,[1],0.106 µM
same,EC50,[2],> 33 µM
same,EC50,[3],> 33 µM
same,IC50,[4]; 72 h incubation,2e-05 M
same,IC50,[5]; 72 h incubation,1.02e-05 M
same,IC50,[6],2.21e-05 M
same,IC50,[7]; [10],> 3.3e-05 M
same,IC50,[8]; [11],> 3.3e-05 M
"Cc1c2c(nn1C1CC1)COCCCCn1c(C(=O)O)c(CCCOc3cccc4ccccc34)c3cccc-2c31 (single isomer, unassigned; enantiomer 2) [Example 094, 2-cyclopropyl-3-methyl-7-[3-(naphthalen-1-yloxy)propyl]-2,10,11,12,13,15-hexahydropyrazolo[4′,3′:9,10][1,6]oxazacycloundecino[8,7,6-hi]indole-8-carboxylic acid-N-ethylethanamine Salt (Enantiomer 2)]",IC50,[1],0.12 µM
same,EC50,[2],> 33 µM
same,EC50,[3],> 33 µM
same,IC50,[4]; 72 h incubation,3.11e-05 M
same,IC50,[5]; 72 h incubation,1.64e-05 M
same,IC50,[6],2.58e-05 M
same,IC50,[7]; [10],> 3.3e-05 M
same,IC50,[8]; [11],> 3.3e-05 M
"Cn1nc2c(c1C(F)(F)F)-c1cccc3c(CCCOc4cccc5ccccc45)c(C(=O)O)n(c13)CCCCOC2 (single isomer, unassigned; enantiomer 2) [Example 195, 2-methyl-7-[3-(naphthalen-1-yloxy)propyl]-3-(trifluoromethyl)-2,10,11,12,13,15-hexahydropyrazolo[4′,3′:9,10][1,6]oxazacycloundecino[8,7,6-hi]indole-8-carboxylic Acid (Enantiomer 2)]",IC50,[1],0.0532 µM
same,EC50,[2],> 33 µM
same,EC50,[3],> 33 µM
same,IC50,[4]; 72 h incubation,5.84e-06 M
same,IC50,[5]; 72 h incubation,1.32e-05 M
same,IC50,[6],1.27e-05 M
same,IC50,[7]; [10],> 3.3e-05 M
same,IC50,[8]; [11],> 3.3e-05 M
"Cc1nn(CCN(C)C)c2c1-c1cccc3c(CCCOc4cccc5ccccc45)c(C(=O)O)n(c13)CCCCOC2 (racemic) [Example 244, (rac)-1-[2-(dimethylamino)ethyl]-3-methyl-7-[3-(naphthalen-1-yloxy)propyl]-1,10,11,12,13,15-hexahydropyrazolo[4′,3′:9,10][1,6]oxazacycloundecino[8,7,6-hi]indole-8-carboxylic Acid Trifluoroacetic Acid Salt]",IC50,[1],0.00664 µM
same,EC50,"[2]; Homo sapiens, SU-DHL-5, 3 h",2.69 µM
same,EC50,"[3]; Homo sapiens, SU-DHL10, 3 h",6.42 µM
same,IC50,[4]; [9],5.23e-06 M
same,IC50,[5]; [12],5e-06 M
same,IC50,"[6]; Homo sapiens, A2780, 72 h",1.84e-05 M
same,IC50,[7]; [13],3.2e-06 M
same,IC50,[8]; [14],6.6e-06 M
"Cc1cc(OCCCc2c(C(=O)O)n3c4c(cccc24)-c2c(C)nn(C)c2COCCCC3)cc(C)c1Cl (single isomer, unassigned; enantiomer 2) [Example 011, 7-[3-(4-chloro-3,5-dimethylphenoxy)propyl]-1,3-dimethyl-1,10,11,12,13,15-hexahydropyrazolo[4′,3′:9,10][1,6]oxazacycloundecino[8,7,6-hi]indole-8-carboxylic Acid-N-ethylethanamine Salt (Enantiomer 2)]",IC50,[1],0.162 µM
same,EC50,[2],> 33 µM
same,EC50,[3],> 33 µM
same,IC50,[4]; 72 h incubation,2.02e-05 M
same,IC50,[5]; 72 h incubation,1.18e-05 M
same,IC50,[6],1.58e-05 M
same,IC50,[7]; [10],> 3.3e-05 M
same,IC50,[8]; [11],> 3.3e-05 M
"COCc1nn(C)c2c1-c1cccc3c(CCCOc4cccc5ccccc45)c(C(=O)O)n(c13)CCCCCOC2 (single isomer, unassigned; enantiomer 1) [Example 178, 3-(methoxymethyl)-1-methyl-7-[3-(naphthalen-1-yloxy)propyl]-1,11,12,13,14,16-hexahydro-1 OH-pyrazolo[3′,4′:3,4][1,7]oxazacyclododecino[5,6,7-h]indole-8-carboxylic acid-N-ethylethanamine Salt (Enantiomer 1)]",IC50,[1],0.0181 µM
same,EC50,"[2]; Homo sapiens, SU-DHL-5, 3 h",12.8 µM
same,EC50,"[3]; Homo sapiens, SU-DHL10, 3 h",> 33 µM
same,EC50,[3],30 µM
same,IC50,[4]; [9],9.37e-06 M
same,IC50,[5]; 72 h incubation,> 3.3e-05 M and 2.21e-05 M
same,IC50,"[6]; Homo sapiens, A2780, 72 h",> 3.3e-05 M
same,IC50,[7]; [13],1.3e-05 M
same,IC50,[8]; [14],> 3.3e-05 M
